Molecules are shown by their SMILES. pIC50: −log10 of the molar value.

In general, pIC50 refers to the negative decadic logarithm of the IC50, by convention in mol/L. Broadly, the inhibition is the percentage by which the read-out fell short of the control. Read a low inhibition as little suppression.

Series [1] deals with T1, recombinant purified human BTK (Homo sapiens, UniProt Q06187).
T1 construct: purchased SignalChem, USA
The series can be described thus: In vitro BTK kinase assay on ADP Glo platform. Type of series: biochemical. Conditions: 2 hr room temperature, read-out: In-vitro BTK inhibitory activity: IC50. The gist of the method:
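Recombinant human BTK (3 ng/reaction) with compound dilutions in Tris pH 7.5, MgCl2/MnCl2, BSA, DTT; started with 50 µM ATP (final) and polyGln4Tyr1 substrate, 2 h at room temperature. ADP formed detected by ADP-Glo luminescence; IC50 by nonlinear fit versus uninhibited enzyme as 100%.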

Series [2] concerns the target T2, CYP 1A2 (Homo sapiens, UniProt P05177).
T2 construct: from tissue; host or cells: human liver microsomes
T2 sequence (P05177 1-516): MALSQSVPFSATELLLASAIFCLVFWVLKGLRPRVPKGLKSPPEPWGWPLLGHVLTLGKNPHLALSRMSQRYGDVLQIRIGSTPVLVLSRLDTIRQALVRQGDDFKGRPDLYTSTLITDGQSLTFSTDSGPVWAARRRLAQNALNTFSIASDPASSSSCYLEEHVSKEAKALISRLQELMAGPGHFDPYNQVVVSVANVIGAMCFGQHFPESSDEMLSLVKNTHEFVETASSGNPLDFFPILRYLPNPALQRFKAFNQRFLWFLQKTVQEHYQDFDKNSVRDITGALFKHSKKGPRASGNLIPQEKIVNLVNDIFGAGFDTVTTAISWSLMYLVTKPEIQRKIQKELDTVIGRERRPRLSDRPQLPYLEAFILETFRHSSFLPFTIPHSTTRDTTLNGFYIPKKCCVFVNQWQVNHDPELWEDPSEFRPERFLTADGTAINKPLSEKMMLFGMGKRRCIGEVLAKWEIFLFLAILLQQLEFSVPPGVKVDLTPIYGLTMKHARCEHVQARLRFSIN
The series can be described thus: CYP inhibition in human liver microsomes, 1A2. Type of series: in vitro ADME. Conditions: pH 7.4, @ 10 μM concn. In short, it runs like this:
(§1)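 Human liver microsomes in 100 mM phosphate pH 7.4 with CYP-specific probe substrate were incubated with test compound at […] and 10 μM, started with 1 mM NADPH at 37° C. Reactions were stopped with acetonitrile, and marker-reaction metabolites were quantified by LC-MS/MS. Final solvent was ≤0.2%.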

For series [3], the target named is T3, CYP 2C8 (Homo sapiens, UniProt P10632).
T3 construct: from tissue; host or cells: human liver microsomes
T3 sequence (P10632 1-490): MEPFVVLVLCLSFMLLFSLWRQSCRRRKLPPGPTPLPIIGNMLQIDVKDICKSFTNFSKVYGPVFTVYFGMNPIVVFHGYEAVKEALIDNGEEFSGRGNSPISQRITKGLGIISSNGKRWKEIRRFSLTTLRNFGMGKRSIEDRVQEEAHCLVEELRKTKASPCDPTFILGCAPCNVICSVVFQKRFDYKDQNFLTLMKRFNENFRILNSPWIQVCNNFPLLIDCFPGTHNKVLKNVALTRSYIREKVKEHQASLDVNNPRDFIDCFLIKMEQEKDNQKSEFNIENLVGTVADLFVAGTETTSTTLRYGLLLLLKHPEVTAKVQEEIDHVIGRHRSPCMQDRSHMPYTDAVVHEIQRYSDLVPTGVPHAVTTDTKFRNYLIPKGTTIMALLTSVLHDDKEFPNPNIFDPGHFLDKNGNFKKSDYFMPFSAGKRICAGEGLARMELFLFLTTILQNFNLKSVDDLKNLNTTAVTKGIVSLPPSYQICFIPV
Nature of the series: CYP inhibition in human liver microsomes, 2C8. It counts as in vitro ADME. As to conditions: pH 7.4, @ 10 μM concn. In short, it runs like this:
as §1

For series [4], the target named is T4, CYP 2C9 (Homo sapiens, UniProt P11712).
T4 construct: from tissue; host or cells: human liver microsomes
Nature of the series: CYP inhibition in human liver microsomes, 2C9. Type of series: in vitro ADME. Conditions: pH 7.4, @ 10 μM concn. In short, it runs like this: as §1
For orientation: Liver microsomes are a subcellular fraction often used to study metabolism.

Series [5] concerns the target T5, CYP 2C19 (Homo sapiens, UniProt P33261).
T5 construct: from tissue; host or cells: human liver microsomes
Nature of the series: CYP inhibition in human liver microsomes, 2C19. It counts as in vitro ADME. Conditions: pH 7.4, @ 10 μM concn. The gist of the method: as §1

Series [6] has as its target T6, CYP 2D6 (Homo sapiens, UniProt P10635).
T6 construct: from tissue; host or cells: human liver microsomes
Nature of the series: CYP inhibition in human liver microsomes, 2D6. It counts as in vitro ADME. As to conditions: pH 7.4, @ 10 μM concn. The gist of the method: as §1

Series [7] concerns the target T7, CYP 3A4 (Homo sapiens, UniProt P08684).
T7 construct: from tissue; host or cells: human liver microsomes
The series can be described thus: CYP inhibition in human liver microsomes, 3A4. It counts as in vitro ADME. As to conditions: pH 7.4, @ 10 μM concn. In short, it runs like this: as §1

T7 sequence (P08684 whole entry): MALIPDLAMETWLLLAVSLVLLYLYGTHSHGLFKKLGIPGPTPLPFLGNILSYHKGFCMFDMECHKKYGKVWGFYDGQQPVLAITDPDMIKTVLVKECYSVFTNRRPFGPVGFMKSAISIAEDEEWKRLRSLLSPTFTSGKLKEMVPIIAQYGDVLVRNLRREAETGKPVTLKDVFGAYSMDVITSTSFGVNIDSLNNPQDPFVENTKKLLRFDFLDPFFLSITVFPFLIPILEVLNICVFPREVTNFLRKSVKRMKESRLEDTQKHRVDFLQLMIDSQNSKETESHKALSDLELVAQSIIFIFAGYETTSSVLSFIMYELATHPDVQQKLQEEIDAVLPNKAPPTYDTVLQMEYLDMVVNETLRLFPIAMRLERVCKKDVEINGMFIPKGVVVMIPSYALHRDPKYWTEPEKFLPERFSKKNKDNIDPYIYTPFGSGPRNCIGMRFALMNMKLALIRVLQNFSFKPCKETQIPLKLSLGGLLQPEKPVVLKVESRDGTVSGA
T6 sequence (P10635 whole entry): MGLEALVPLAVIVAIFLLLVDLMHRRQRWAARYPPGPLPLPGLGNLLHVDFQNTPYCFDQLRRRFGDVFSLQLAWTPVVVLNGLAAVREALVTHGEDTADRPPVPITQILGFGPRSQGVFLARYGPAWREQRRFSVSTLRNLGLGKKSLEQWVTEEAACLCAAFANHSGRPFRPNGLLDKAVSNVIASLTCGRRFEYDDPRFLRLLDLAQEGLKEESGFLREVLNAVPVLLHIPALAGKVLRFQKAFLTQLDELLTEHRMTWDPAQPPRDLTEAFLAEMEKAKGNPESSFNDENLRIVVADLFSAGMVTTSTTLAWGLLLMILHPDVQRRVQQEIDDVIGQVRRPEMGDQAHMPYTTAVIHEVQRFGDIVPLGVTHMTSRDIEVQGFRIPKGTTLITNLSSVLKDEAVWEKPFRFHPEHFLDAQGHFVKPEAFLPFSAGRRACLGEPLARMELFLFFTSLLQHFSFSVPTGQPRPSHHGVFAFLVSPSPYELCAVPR
T1 sequence (Q06187 whole entry): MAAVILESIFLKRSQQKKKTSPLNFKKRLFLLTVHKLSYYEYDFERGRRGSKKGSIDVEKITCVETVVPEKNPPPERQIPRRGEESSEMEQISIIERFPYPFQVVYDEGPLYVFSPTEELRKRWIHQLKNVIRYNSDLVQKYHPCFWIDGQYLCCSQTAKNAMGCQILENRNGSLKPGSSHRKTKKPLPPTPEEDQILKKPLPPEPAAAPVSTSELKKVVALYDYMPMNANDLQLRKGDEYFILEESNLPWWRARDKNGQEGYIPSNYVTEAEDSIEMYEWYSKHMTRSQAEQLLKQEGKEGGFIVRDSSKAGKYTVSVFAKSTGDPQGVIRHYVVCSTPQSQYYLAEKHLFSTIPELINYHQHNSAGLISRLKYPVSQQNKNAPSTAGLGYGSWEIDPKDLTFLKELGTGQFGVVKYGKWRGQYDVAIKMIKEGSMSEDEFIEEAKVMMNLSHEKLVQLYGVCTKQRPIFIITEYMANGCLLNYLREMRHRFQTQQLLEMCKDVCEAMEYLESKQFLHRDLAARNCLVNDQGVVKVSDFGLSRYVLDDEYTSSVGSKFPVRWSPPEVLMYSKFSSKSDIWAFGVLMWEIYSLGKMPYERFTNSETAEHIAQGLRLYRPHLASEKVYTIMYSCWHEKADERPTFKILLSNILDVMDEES
T4 sequence (P11712 whole entry): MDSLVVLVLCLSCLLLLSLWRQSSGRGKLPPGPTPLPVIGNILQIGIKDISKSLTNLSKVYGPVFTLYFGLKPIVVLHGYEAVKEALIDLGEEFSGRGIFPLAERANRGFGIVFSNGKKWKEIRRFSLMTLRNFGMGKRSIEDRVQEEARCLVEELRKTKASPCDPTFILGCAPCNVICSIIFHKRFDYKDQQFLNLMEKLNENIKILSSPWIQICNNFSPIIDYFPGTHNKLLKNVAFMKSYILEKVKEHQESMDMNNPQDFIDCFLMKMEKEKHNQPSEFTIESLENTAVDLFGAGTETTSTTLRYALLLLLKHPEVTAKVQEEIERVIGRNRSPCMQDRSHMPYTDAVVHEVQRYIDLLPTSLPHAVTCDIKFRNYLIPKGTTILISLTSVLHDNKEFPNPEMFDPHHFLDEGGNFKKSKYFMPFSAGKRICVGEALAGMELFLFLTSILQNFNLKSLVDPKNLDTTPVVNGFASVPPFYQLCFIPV
T5 sequence (P33261 whole entry): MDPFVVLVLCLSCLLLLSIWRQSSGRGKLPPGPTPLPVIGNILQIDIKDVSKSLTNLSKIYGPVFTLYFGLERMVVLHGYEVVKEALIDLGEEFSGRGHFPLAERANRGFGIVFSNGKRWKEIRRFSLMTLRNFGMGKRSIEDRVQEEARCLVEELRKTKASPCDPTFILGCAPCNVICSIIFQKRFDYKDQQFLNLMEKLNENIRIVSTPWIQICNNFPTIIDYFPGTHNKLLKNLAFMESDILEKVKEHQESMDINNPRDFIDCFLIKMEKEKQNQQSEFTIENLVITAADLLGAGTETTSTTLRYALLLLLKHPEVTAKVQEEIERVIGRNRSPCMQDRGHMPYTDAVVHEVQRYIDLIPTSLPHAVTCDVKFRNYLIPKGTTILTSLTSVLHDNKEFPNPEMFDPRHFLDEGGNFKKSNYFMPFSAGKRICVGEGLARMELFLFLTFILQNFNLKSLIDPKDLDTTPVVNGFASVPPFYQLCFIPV

Regarding `Cc1ccnc(NC(=O)c2ccc(-c3nn(C4CC5CN(C(=O)/C=C/CN(C)C)CC5C4)c4ncnc(N)c34)cc2)c1` (centres unmarked) [Compound 45, (E)-4-(4-amino-1-(2-(4-(dimethylamino)but-2-enoyl)octahydrocyclopenta[c]pyrrol-5-yl)-1H-pyrazolo[3,4-d]pyrimidin-3-yl)-N-(4-methylpyridin-2-yl) benzamide], the negative-log IC50 (pIC50) in series [1] was 8.00. For the same compound, the inhibition at 10 μM in series [2] was > 50%; in series [3], < 50%; in series [4], < 50%; in series [5], < 50%; in series [6], < 50%; in series [7] it was < 50%.
As for `C=CC(=O)N1CC2CC(n3nc(-c4ccc(C(=O)Nc5ccccn5)cc4)c4c(N)ncnc43)CC2C1` (centres unmarked) [Compound 13, 4-(1-(2-acryloyloctahydrocyclopenta[c]pyrrol-5-yl)-4-amino-1H-pyrazolo[3,4-d]pyrimidin-3-yl)-N-(pyridin-2-yl)benzamide], the pIC50 in series [1] is 8.74. Moreover, the inhibition at 10 μM is < 50% in series [2]; < 50% in series [3]; < 50% in series [4]; > 50% in series [5]; < 50% in series [6]; < 50% in series [7].
Consider `C=CS(=O)(=O)N1CC2CC(n3c(=O)n(-c4ccc(Oc5ccccc5)cc4)c4c(N)ncnc43)CC2C1` (centres unmarked) [Compound 33, 6-amino-7-(4-phenoxyphenyl)-9-(2-(vinylsulfonyl)octahydrocyclopenta[c]pyrrol-5-yl)-7H-purin-8(9H)-one], for which, in series [1], the pIC50 is 8.82. The inhibition at 10 μM in series [2], in series [3], in series [4], in series [5], in series [6] and in series [7] was < 50% throughout.
Turning to `C=CC(=O)N1CC2CC(n3nc(-c4ccc5c(c4)OCO5)c4c(N)ncnc43)CC2C1` (centres unmarked) [Compound 15, 1-(5-(4-amino-3-(benzo[d] [1,3]dioxol-5-yl)-1H-pyrazolo[3,4-d]pyrimidin-1-yl)hexahydrocyclopenta[c]pyrrol-2(1H)-yl)prop-2-en-1-one], the pIC50 in series [1] is 7.74. The inhibition at 10 μM in series [2] is < 50%; in series [3] it was < 50%; in series [4] it was < 50%; in series [5] it was < 50%; in series [6], < 50%; in series [7], > 50%.
`C=CC(=O)N1CC2CC(n3nc(-c4ccc5oc(-c6ccccc6)nc5c4)c4c(N)ncnc43)CC2C1` (centres unmarked) [Compound 23, 1-(5-(4-amino-3-(2-phenylbenzo[d]oxazol-5-yl)-1H-pyrazolo[3,4-d]pyrimidin-1-yl)hexahydrocyclopenta[c]pyrrol-2(1H)-yl)prop-2-en-1-one]: the pIC50 in series [1] is 7.32. The inhibition at 10 μM is < 50% in series [2]; > 50% in series [3]; > 50% in series [4]; < 50% in series [5]; < 50% in series [6]; > 50% in series [7].
For `C=CC(=O)N1CC2CC(n3nc(-c4ccc(C(=O)Nc5cc(C)ccn5)cc4)c4c(N)ncnc43)CC2C1` (centres unmarked) [Compound 30, 4-(1-(2-acryloyloctahydrocyclopenta[c]pyrrol-5-yl)-4-amino-1H-pyrazolo[3,4-d]pyrimidin-3-yl)-N-(4-methylpyridin-2-yl)benzamide], the pIC50 in series [1] was 8.22. Further, the inhibition at 10 μM in series [2], in series [3], in series [4], in series [5], in series [6] and in series [7] was < 50% throughout.
For the compound `C=CC(=O)N1CC2CC(n3c(Br)c(-c4ccc(Oc5ccccc5)cc4)c4c(N)ncnc43)CC2C1` (centres unmarked) [Compound 27, 1-(5-(4-amino-6-bromo-5-(4-phenoxyphenyl)-7H-pyrrolo[2,3-d]pyrimidin-7-yl)hexahydrocyclopenta[c]pyrrol-2(1H)-yl)prop-2-en-1-one], the pIC50 in series [1] was 8.80. Moreover, the inhibition at 10 μM in series [2], in series [3], in series [4], in series [5], in series [6] and in series [7] was < 50% each time.
Turning to `CN(C)C/C=C/C(=O)N1CC2CC(n3nc(-c4ccc(C(=O)Nc5ccccn5)cc4)c4c(N)ncnc43)CC2C1` (centres unmarked) [Compound 44, (E)-4-(4-amino-1-(2-(4-(dimethylamino)but-2-enoyl)octahydrocyclopenta [c]pyrrol-5-yl)-1H-pyrazolo[3,4-d]pyrimidin-3-yl)-N-(pyridin-2-yl) benzamide], the pIC50 in series [1] is 8.85. In addition, the inhibition at 10 μM in series [2], in series [3], in series [4], in series [5], in series [6] and in series [7] was < 50% each time.

(Values after patent publication US9840509B2, “Heterocyclic compounds” (CADILA HEALTHCARE LIMITED, priority 2014, dated 2017).)
